Results on 10 molecules are retold here after BindingDB's records for doi:10.1016/j.bmcl.2018.08.004 (Beijing Institute of Pharmacology and Toxicology, 2018).

Each structure is given as a SMILES string. Bridge positions count the residues as written; N and C are the ends. Square brackets hold non-standard residues; d marks the D form. Peptide text beside a SMILES is read from it. Phe(4-Br) = N[C@@H](Cc1ccc(Br)cc1)C(=O)O; Phe(4-Cl) = N[C@@H](Cc1ccc(Cl)cc1)C(=O)O; 1Nal = N[C@@H](Cc1cccc2ccccc12)C(=O)O; 2Nal = N[C@@H](Cc1ccc2ccccc2c1)C(=O)O; Phe(2-F) = N[C@@H](Cc1ccccc1F)C(=O)O; Cit = NC(=O)NCCC[C@H](N)C(=O)O; NMeA = CN[C@@H](C)C(=O)O; Sar = CNCC(=O)O

Usually EC50 stands for the midpoint of the concentration-response curve.

The experiment in a line: Agonist activity at EPO receptor in human TF1 cells assessed as induction of cell proliferation after 48 hrs by MTT assay. A general note: Formazan colour is commonly taken as a measure of viable cells.

Turning to `CC[C@H](C)[C@@H]1NC(=O)CN(C)C(=O)CNC(=O)[C@H](CCSC)NC(=O)[C@H](Cc2cnc[nH]2)NC(=O)[C@@H](NC(=O)[C@H](C)NC(=O)[C@H](Cc2ccc(O)cc2)NC(=O)[C@H](CC(C)C)NC(=O)CNC(=O)CNC(C)=O)CSSC[C@@H](C(=O)N[C@@H](CCC(N)=O)C(=O)N2CCC[C@H]2C(=O)N[C@@H](CC(C)C)C(=O)N[C@@H](CCCNC(=N)N)C(=O)N(C)CC(=O)N[C@@H](CCCCN)C(N)=O)NC(=O)[C@H](C(C)C)NC(=O)[C@H](Cc2cccc3ccccc23)NC(=O)[C@H]([C@@H](C)O)NC1=O` (Ac-GGLYACHMG[Sar]IT[1Nal]VCQPLR[Sar]K-NH2; disulfide 6-15), the EC50 is 31 nM.

For the molecule `CC[C@H](C)[C@@H]1NC(=O)[C@@H]2CCCN2C(=O)CNC(=O)[C@H](CCSC)NC(=O)[C@H](Cc2cnc[nH]2)NC(=O)[C@@H](NC(=O)[C@H](C)NC(=O)[C@H](Cc2ccc(O)cc2)NC(=O)[C@H](CC(C)C)NC(=O)CNC(=O)CNC(C)=O)CSSC[C@@H](C(=O)N[C@@H](CCC(N)=O)C(=O)N2CCC[C@H]2C(=O)N[C@@H](CC(C)C)C(=O)N[C@@H](CCCNC(N)=O)C(=O)N(C)CC(=O)N[C@@H](CCCCN)C(N)=O)NC(=O)[C@H](C(C)C)NC(=O)[C@H](Cc2cccc3ccccc23)NC(=O)[C@H]([C@@H](C)O)NC1=O` (Ac-GGLYACHMGPIT[1Nal]VCQPL[Cit][Sar]K-NH2; disulfide 6-15), the EC50 was determined as 31 nM. The figure for `CC[C@H](C)[C@@H]1NC(=O)[C@@H]2CCCN2C(=O)CNC(=O)[C@H](CCSC)NC(=O)[C@H](Cc2cnc[nH]2)NC(=O)[C@@H](NC(=O)[C@H](C)NC(=O)[C@H](Cc2ccc(O)cc2)NC(=O)[C@H](CC(C)C)NC(=O)CNC(=O)CNC(C)=O)CSSC[C@@H](C(=O)N[C@@H](CCC(N)=O)C(=O)N2CCC[C@H]2C(=O)N[C@@H](CC(C)C)C(=O)N[C@@H](CCCNC(=N)N)C(=O)N(C)CC(=O)N[C@@H](CCCCN)C(N)=O)NC(=O)[C@H](C(C)C)NC(=O)[C@H](Cc2ccc3ccccc3c2)NC(=O)[C@H]([C@@H](C)O)NC1=O` (Ac-GGLYACHMGPIT[2Nal]VCQPLR[Sar]K-NH2; disulfide 6-15) is 540 nM; for `CC[C@H](C)[C@@H]1NC(=O)[C@@H]2CCCN2C(=O)CNC(=O)[C@H](CCSC)NC(=O)[C@H](Cc2cnc[nH]2)NC(=O)[C@@H](NC(=O)[C@H](C)NC(=O)[C@H](Cc2ccc(O)cc2)NC(=O)[C@H](CC(C)C)NC(=O)CNC(=O)CNC(C)=O)CSSC[C@@H](C(=O)N[C@@H](CCC(N)=O)C(=O)N2CCC[C@H]2C(=O)N[C@@H](CC(C)C)C(=O)N[C@@H](CCCNC(=N)N)C(=O)N(C)CC(=O)N[C@@H](CCCCN)C(N)=O)NC(=O)[C@H](C(C)C)NC(=O)[C@H](Cc2ccccc2F)NC(=O)[C@H]([C@@H](C)O)NC1=O` (Ac-GGLYACHMGPIT[Phe(2-F)]VCQPLR[Sar]K-NH2; disulfide 6-15) it is 540 nM. Regarding `CC[C@H](C)[C@@H]1NC(=O)[C@@H]2CCCN2C(=O)CNC(=O)[C@H](CCSC)NC(=O)[C@H](Cc2cnc[nH]2)NC(=O)[C@@H](NC(=O)[C@H](C)NC(=O)[C@H](Cc2ccc(O)cc2)NC(=O)[C@H](CC(C)C)NC(=O)CNC(=O)CNC(C)=O)CSSC[C@@H](C(=O)N[C@@H](CCC(N)=O)C(=O)N(C)[C@@H](C)C(=O)N[C@@H](CC(C)C)C(=O)N[C@@H](CCCNC(=N)N)C(=O)N(C)CC(=O)N[C@@H](CCCCN)C(N)=O)NC(=O)[C@H](C(C)C)NC(=O)[C@H](Cc2cccc3ccccc23)NC(=O)[C@H]([C@@H](C)O)NC1=O` (Ac-GGLYACHMGPIT[1Nal]VCQ[NMeA]LR[Sar]K-NH2; disulfide 6-15), the EC50 stood at 12 nM. For `CC[C@H](C)[C@@H]1NC(=O)[C@@H]2CCCN2C(=O)CNC(=O)[C@H](CCSC)NC(=O)[C@H](Cc2cnc[nH]2)NC(=O)[C@@H](NC(=O)[C@H](C)NC(=O)[C@H](Cc2ccc(O)cc2)NC(=O)[C@H](CC(C)C)NC(=O)CNC(=O)CNC(C)=O)CSSC[C@@H](C(=O)N[C@@H](CCC(N)=O)C(=O)N2CCC[C@H]2C(=O)N[C@@H](CC(C)C)C(=O)N[C@@H](CCCNC(=N)N)C(=O)N(C)CC(=O)N[C@@H](CCCCN)C(N)=O)NC(=O)[C@H](C(C)C)NC(=O)[C@H](Cc2ccc(Cl)cc2)NC(=O)[C@H]([C@@H](C)O)NC1=O` (Ac-GGLYACHMGPIT[Phe(4-Cl)]VCQPLR[Sar]K-NH2; disulfide 6-15), the EC50 came out at 240 nM. For `CC[C@H](C)[C@@H]1NC(=O)[C@@H]2CCCN2C(=O)CNC(=O)[C@H](CCSC)NC(=O)[C@H](Cc2cnc[nH]2)NC(=O)[C@@H](NC(=O)[C@H](C)NC(=O)[C@H](Cc2ccc(O)cc2)NC(=O)[C@H](CC(C)C)NC(=O)CNC(=O)CNC(C)=O)CSSC[C@@H](C(=O)N[C@@H](CCC(N)=O)C(=O)N(C)CC(=O)N[C@@H](CC(C)C)C(=O)N[C@@H](CCCNC(=N)N)C(=O)N(C)CC(=O)N[C@@H](CCCCN)C(N)=O)NC(=O)[C@H](C(C)C)NC(=O)[C@H](Cc2cccc3ccccc23)NC(=O)[C@H]([C@@H](C)O)NC1=O` (Ac-GGLYACHMGPIT[1Nal]VCQ[Sar]LR[Sar]K-NH2; disulfide 6-15), the EC50 came to 42 nM. Regarding `CC[C@H](C)[C@@H]1NC(=O)[C@H](C)N(C)C(=O)CNC(=O)[C@H](CCSC)NC(=O)[C@H](Cc2cnc[nH]2)NC(=O)[C@@H](NC(=O)[C@H](C)NC(=O)[C@H](Cc2ccc(O)cc2)NC(=O)[C@H](CC(C)C)NC(=O)CNC(=O)CNC(C)=O)CSSC[C@@H](C(=O)N[C@@H](CCC(N)=O)C(=O)N2CCC[C@H]2C(=O)N[C@@H](CC(C)C)C(=O)N[C@@H](CCCNC(=N)N)C(=O)N(C)CC(=O)N[C@@H](CCCCN)C(N)=O)NC(=O)[C@H](C(C)C)NC(=O)[C@H](Cc2cccc3ccccc23)NC(=O)[C@H]([C@@H](C)O)NC1=O` (Ac-GGLYACHMG[NMeA]IT[1Nal]VCQPLR[Sar]K-NH2; disulfide 6-15), the 50% effective concentration (EC50) amounted to 26 nM. For the molecule `CC[C@H](C)[C@@H]1NC(=O)[C@@H]2CCCN2C(=O)CNC(=O)[C@H](CCSC)NC(=O)[C@H](Cc2cnc[nH]2)NC(=O)[C@@H](NC(=O)[C@H](C)NC(=O)[C@H](Cc2ccc(O)cc2)NC(=O)[C@H](CC(C)C)NC(=O)CNC(=O)CNC(C)=O)CSSC[C@@H](C(=O)N[C@@H](CCC(N)=O)C(=O)N2CCC[C@H]2C(=O)N[C@@H](CC(C)C)C(=O)N[C@@H](CCCNC(=N)N)C(=O)N(C)CC(=O)N[C@@H](CCCCN)C(N)=O)NC(=O)[C@H](C(C)C)NC(=O)[C@H](Cc2cccc3ccccc23)NC(=O)[C@H]([C@@H](C)O)NC1=O`, the concentration for a half-maximal effect (EC50) came out at 11 nM. `CC[C@H](C)[C@@H]1NC(=O)[C@@H]2CCCN2C(=O)CNC(=O)[C@H](CCSC)NC(=O)[C@H](Cc2cnc[nH]2)NC(=O)[C@@H](NC(=O)[C@H](C)NC(=O)[C@H](Cc2ccc(O)cc2)NC(=O)[C@H](CC(C)C)NC(=O)CNC(=O)CNC(C)=O)CSSC[C@@H](C(=O)N[C@@H](CCC(N)=O)C(=O)N2CCC[C@H]2C(=O)N[C@@H](CC(C)C)C(=O)N[C@@H](CCCNC(=N)N)C(=O)N(C)CC(=O)N[C@@H](CCCCN)C(N)=O)NC(=O)[C@H](C(C)C)NC(=O)[C@H](Cc2ccc(Br)cc2)NC(=O)[C@H]([C@@H](C)O)NC1=O` (Ac-GGLYACHMGPIT[Phe(4-Br)]VCQPLR[Sar]K-NH2; disulfide 6-15): the EC50 stood at 540 nM.
